The NIST ThermoML archive (doi:10.1021/je300199a)
Where “and” joins values, the source holds several entries; their conditions need not be identical. Equal values may be shown once. Numbers after ± are expanded uncertainties.

Conditions: Calculated from knudsen effusion weight loss

[Cu] [copper]
Conditions	vapor or sublimation pressure
1211 K, Crystal	3.2e-06 ± 1e-06 kPa
1229 K, Crystal	2.6e-06 ± 8e-07 kPa
1249 K, Crystal	6.5e-06 ± 2e-06 kPa and 5.9e-06 ± 1.8e-06 kPa
1267 K, Crystal	1e-05 ± 2e-06 kPa
1281 K, Crystal	1.4e-05 ± 4e-06 kPa and 1.5e-05 ± 4e-06 kPa
1300 K, Crystal	2.1e-05 ± 6e-06 kPa and 1.9e-05 ± 6e-06 kPa
1314 K, Crystal	2.8e-05 ± 8e-06 kPa and 2.7e-05 ± 8e-06 kPa
1329 K, Crystal	4.5e-05 ± 1.4e-05 kPa and 3.8e-05 ± 1.2e-05 kPa
1343 K, Crystal	5.4e-05 ± 1.6e-05 kPa and 5.1e-05 ± 1.6e-05 kPa
1356 K, Crystal	7e-05 ± 2e-05 kPa
1370 K, Liquid	9e-05 ± 2e-05 kPa
1379 K, Liquid	0.00013 ± 4e-05 kPa
1384 K, Liquid	0.00012 ± 4e-05 kPa
1388 K, Liquid	0.00014 ± 4e-05 kPa
1397 K, Liquid	0.00015 ± 4e-05 kPa
1409 K, Liquid	0.00018 ± 6e-05 kPa and 0.00019 ± 6e-05 kPa
1421 K, Liquid	0.00023 ± 6e-05 kPa
1432 K, Liquid	0.00027 ± 8e-05 kPa and 0.00028 ± 8e-05 kPa
1434 K, Liquid	0.00033 ± 0.0001 kPa
1443 K, Liquid	0.00034 ± 0.0001 kPa
1454 K, Liquid	0.0004 ± 0.00012 kPa and 0.00041 ± 0.00012 kPa
1463 K, Liquid	0.00047 ± 0.00014 kPa and 0.00049 ± 0.00014 kPa
1474 K, Liquid	0.00055 ± 0.00016 kPa and 0.00057 ± 0.00018 kPa
1484 K, Liquid	0.00065 ± 0.0002 kPa and 0.0007 ± 0.0002 kPa
1494 K, Liquid	0.0007 ± 0.0002 kPa and 0.0008 ± 0.0002 kPa
1503 K, Liquid	0.0008 ± 0.0002 kPa and 0.0009 ± 0.0002 kPa
1512 K, Liquid	0.0008 ± 0.0002 kPa and 0.0011 ± 0.0004 kPa
1522 K, Liquid	0.0013 ± 0.0004 kPa and 0.0012 ± 0.0004 kPa
1530 K, Liquid	0.0015 ± 0.0004 kPa and 0.0014 ± 0.0004 kPa
1539 K, Liquid	0.0016 ± 0.0004 kPa
1547 K, Liquid	0.0018 ± 0.0006 kPa and 0.0019 ± 0.0006 kPa
1555 K, Liquid	0.0021 ± 0.0006 kPa
1565 K, Liquid	0.0023 ± 0.0006 kPa and 0.0024 ± 0.0008 kPa and 0.0027 ± 0.0008 kPa
1572 K, Liquid	0.0026 ± 0.0008 kPa and 0.0028 ± 0.0008 kPa and 0.0031 ± 0.001 kPa
1581 K, Liquid	0.0029 ± 0.0008 kPa and 0.0031 ± 0.001 kPa and 0.0035 ± 0.001 kPa
1588 K, Liquid	0.0031 ± 0.001 kPa and 0.0036 ± 0.0011 kPa and 0.004 ± 0.0013 kPa
1596 K, Liquid	0.0038 ± 0.0013 kPa and 0.0041 ± 0.0013 kPa and 0.0045 ± 0.0015 kPa
1604 K, Liquid	0.0039 ± 0.0013 kPa and 0.0046 ± 0.0015 kPa and 0.005 ± 0.0015 kPa
1611 K, Liquid	0.0042 ± 0.0013 kPa and 0.0052 ± 0.0017 kPa and 0.0055 ± 0.0017 kPa
1619 K, Liquid	0.0046 ± 0.0015 kPa and 0.0058 ± 0.0019 kPa and 0.006 ± 0.0019 kPa
1628 K, Liquid	0.005 ± 0.0017 kPa and 0.0066 ± 0.0021 kPa

O=[Si] [silicon monooxide]
Crystal
Conditions	vapor or sublimation pressure [kPa]
1211 K	3e-06 ± 4e-06
1229 K	1.6e-06 ± 1.4e-06
1249 K	8e-06 ± 6e-06
1267 K	1.3e-05 ± 1e-05
1281 K	2.2e-05 ± 1.8e-05
1300 K	4e-05 ± 4e-05
1314 K	6e-05 ± 4e-05
1329 K	9e-05 ± 6e-05
1343 K	0.00013 ± 0.0001
1356 K	0.0002 ± 0.00014
1370 K	0.00028 ± 0.0002
1384 K	0.0004 ± 0.0002
1397 K	0.0005 ± 0.0004
1409 K	0.0007 ± 0.0004
1421 K	0.001 ± 0.0006
1432 K	0.0013 ± 0.0008
1443 K	0.0017 ± 0.001
1454 K	0.0023 ± 0.0012
1463 K	0.0029 ± 0.0016
1474 K	0.0036 ± 0.002
1484 K	0.005 ± 0.002
1494 K	0.006 ± 0.002
1503 K	0.007 ± 0.004
1512 K	0.009 ± 0.004
1522 K	0.011 ± 0.004
1530 K	0.013 ± 0.006
1539 K	0.015 ± 0.006
1547 K	0.018 ± 0.008
1555 K	0.021 ± 0.008
1565 K	0.024 ± 0.01
